US5665716A, “24-homo vitamin D derivatives, process for their production and pharmaceutical preparations obtained therefrom” (Schering Aktiengesellschaft, priority 1989, dated 1997)

Tested on: Keratinocytes of newly born mice
Assay: antiproliferative potency: 3H thymidine incorporation in DNA of keratinocytes
Assay type: cell-based, mouse (neonatal NMRI mice)
Details: Keratinocyte; neonatal mouse keratinocytes, 24 hours with test substance in serum-free medium at 32.5° C., then 4 hours 3H methyl thymidine; read-out: IC50, inhibition of 3H thymidine incorporation in DNA
Description: Keratinocytes of newly born mice, with a slight change of the method of Yuspa, S. and Harris, C.
Neonatal NMRI mice of both sexes are killed by decapitation, the skin is removed, washed in an antibiotic-antimycotic solution and incubated with the dermal side downward in dispase II solution ([…] in tissue culture medium M199+25 mmol/1 of HEPES+15% fetal calf serum (FCS)+50 U/ml of penicillin/streptomycin (P/S) (preparation medium, PM) at 4° C. overnight. The epidermis is removed and an individual cell suspension is produced by trypsinization. After centrifuging, the cell sediment is resuspended, after trypan blue dyeing, the number of living small round cells is determined and the cells are sown in a density of 4×10^5 cells/cm^2 in Primaria 24-hole plates in tissue culture medium (M199+15% FCS+50 U/ml of P/S). […] Then 0.4 microCi/50 microliters of ^3 H methyl thymidine (40 Ci/mmol) is added. After 4 hours the medium is suctioned off and the reaction is ended by addition of 500 microliters of ice-cold 10% trichloroacetic acid (TCA). The cells are washed with TCA and PBS, lysed by incubation in a proteinase K solution (10 mmol/l of tris-HCl, 10 mmol/l of EDTA, 10 mmol/l of NaCl, 0.2% of Triton-X 100, pH 8.0, 50 micrograms/ml of […]) and the lysate is clarified by centrifuging. In the supernatant the radioactivity is determined scintillation photometrically and, after specific staining of the DNA with diamidinophenylindole (DAPI), the DNA concentration is fluorescence photometrically determined.

With `C=C1/C(=C\C=C2/CCC[C@]3(C)[C@@H]([C@H](C)/C=C/[C@@H](O)CC(C)C)CC[C@@H]23)C[C@@H](O)C[C@@H]1O` [Compound B, (5Z,7E,22E)-(1S,3R,24S)-9,10-seco-24a-homo-5,7,10(19),22-cholestatetraene-1,3,24-triol] as the compound, how does the IC50 read?
The IC50 was 9.5 nM.

`C=C1/C(=C\C=C2/CCC[C@]3(C)[C@@H]([C@H](C)/C=C/[C@H](O)CC(C)C)CC[C@@H]23)C[C@@H](O)C[C@@H]1O` [Compound A, (5Z,7E,22E)-(1S,3R,24R)-9,10-seco-24a-homo-5,7,10(19),22-cholestatetraene-1,3,24-triol] was tested. Which IC50 did it give?
Its IC50 is 6 nM.

How did the IC50 turn out when `C=C1/C(=C\C=C2/CCC[C@]3(C)[C@@H]([C@H](C)CCCC(C)(C)O)CC[C@@H]23)C[C@@H](O)C[C@@H]1O` [Calcitriol, 1alpha,25-dihydroxy-cholecalciferol, reference compound] was run?
Its IC50 is 2.7 nM.
